Test systems include CAKI-1; SW-620; NCI-H226; NCI-H522; RPMI-8226; RXF 393; TK-10; HCT-116; SK-MEL-5; SR; U-251; MOLT-4; HCC 2998; SK-MEL-2; HOP-62; NCI-H460; M19-MEL; HL-60; NCI/ADR-RES; T47D.
Common to all, as to assay: NCI anticancer screen, dose series, 48 h

Structures are written as SMILES.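 In this assay, cells in 96-well plates receive the compound at five concentrations for 48 hours. Endpoints are linearly interpolated between the surrounding concentrations. At the GI50, growth is halved.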 Calls of active or inactive are those of the source. Rule as the data show it: active = GI50 up to about 1.1 µM and inactive = higher. Some results are limits rather than exact numbers.

For `O=C1C2=C(SCCS2)C(=O)c2ccccc21`, the GI50 in the experiment with CAKI-1 was 1.9 µM (inactive); in the experiment with SW-620 it was 2.11 µM (inactive); in the experiment with NCI-H226, 2.08 µM (inactive); in the experiment with NCI-H522 it was 1.76 µM (inactive); with RPMI-8226, 1.79 µM (inactive); in the experiment on RXF 393 it was 2.1 µM (inactive). Further, the GI50 in the experiment on TK-10 was 1.84 µM (inactive); with HCT-116, 1.67 µM (inactive); in the experiment with SK-MEL-5 it was 1.69 µM (inactive); in the experiment on SR, 1.2 µM (inactive); in the experiment on U-251, 1.64 µM (inactive); in the experiment with MOLT-4, 2.23 µM (inactive). Also, the GI50 is 1.65 µM (inactive) with HCC 2998; 1.99 µM (inactive) in the experiment with SK-MEL-2; 1.56 µM (inactive) in the experiment with HOP-62; 1.83 µM (inactive) in the experiment on NCI-H460; 0.236 µM (active) in the experiment with M19-MEL; 2.31 µM (inactive) in the experiment on HL-60.

With `O=C1c2ccccc2OP(=O)(OCC(F)(F)F)OC1(C(F)(F)F)C(F)(F)F` (stereo unspecified), the GI50 in the experiment with CAKI-1, in the experiment on SW-620, in the experiment on NCI-H226, with NCI-H522, in the experiment with RPMI-8226 and with RXF 393 was > 100 µM (inactive) in each case. Further, the GI50 in the experiment with TK-10, in the experiment on HCT-116, with SK-MEL-5, with SR, with U-251 and with MOLT-4 was > 100 µM (inactive) in each case. In addition, the GI50 in the experiment with HCC 2998, in the experiment with SK-MEL-2, with HOP-62, in the experiment on NCI-H460, in the experiment on M19-MEL and with HL-60 was > 100 µM (inactive) throughout.

Take `O=C1C(=O)N(c2cccc(C(F)(F)F)c2)C(=O)C(=O)C1c1nc2ccccc2s1`: the GI50 in the experiment on NCI/ADR-RES was 45.2 µM (inactive); with CAKI-1, > 100 µM (inactive); in the experiment with SW-620 it was 61.1 µM (inactive); in the experiment on NCI-H226 it was > 81.8 µM (inactive); in the experiment on NCI-H522, > 100 µM (inactive); with RPMI-8226, > 80 µM (inactive). Moreover, the GI50 in the experiment on RXF 393 was > 100 µM (inactive); in the experiment on TK-10, > 90.8 µM (inactive); in the experiment on HCT-116, 43.8 µM (inactive); in the experiment on SK-MEL-5, > 100 µM (inactive); in the experiment with SR, 36.3 µM (inactive); in the experiment on T47D it was > 100 µM (inactive). Also, the GI50 with U-251 is 62.4 µM (inactive); with MOLT-4, 43.3 µM (inactive); in the experiment with HCC 2998, 99.5 µM (inactive); with SK-MEL-2 it was > 100 µM (inactive); with HOP-62, 64.9 µM (inactive); in the experiment with NCI-H460 it was > 100 µM (inactive). Besides, the GI50 in the experiment with M19-MEL was 45.1 µM (inactive); in the experiment with HL-60 it was 31.8 µM (inactive).

As for `CSc1nc(NC2OC(COC(C)=O)C(OC(C)=O)C(OC(C)=O)C2OC(C)=O)c(/N=C\C=N/c2c(NC3OC(COC(C)=O)C(OC(C)=O)C(OC(C)=O)C3OC(C)=O)nc(SC)n(C)c2=O)c(=O)n1C` (stereo unspecified), the GI50 was > 100 µM (inactive) with NCI/ADR-RES; > 7.23 µM (inactive) in the experiment with CAKI-1; > 100 µM (inactive) in the experiment on SW-620; 54.1 µM (inactive) in the experiment on NCI-H226; > 100 µM (inactive) with NCI-H522; > 100 µM (inactive) with RPMI-8226. Further, the GI50 is 17.9 µM (inactive) in the experiment on RXF 393; 45.9 µM (inactive) with TK-10; > 100 µM (inactive) in the experiment with HCT-116; > 100 µM (inactive) with SK-MEL-5; > 100 µM (inactive) in the experiment with SR; 96.8 µM (inactive) in the experiment on T47D. Besides, the GI50 in the experiment on U-251 is 41.2 µM (inactive); with MOLT-4, > 100 µM (inactive); with HCC 2998, > 100 µM (inactive); in the experiment on SK-MEL-2 it was 32.7 µM (inactive); in the experiment on HOP-62, 4.32 µM (inactive); in the experiment with NCI-H460, > 100 µM (inactive). The GI50 with M19-MEL and with HL-60 was > 100 µM (inactive) in each case.

Source of the values: ChEMBL document CHEMBL1201862, “PubChem BioAssay data set” (2004).
